Where “and” joins values, the source holds several entries; their conditions need not be identical. Equal entries are not always repeated.

Among the data in PubChem BioAssay AID180 (DTP/NCI, 2004) are T/C values, retold here.

For the assay, the system named is BDF1 mice, Adenocarcinoma 755 s.c., tumor weight T/C. In words: NCI In Vivo Anticancer Drug Screen. Data for tumor model Adenocarcinoma 755 (subcutaneous) in B6D2F1 (BDF1) mice. Conditions: endpoint: mean tumor weight, higher = larger tumour. On the procedure: The antitumor activity of compounds was measured in mice bearing transplantable tumors. Survival or tumor size were measured and the results are expressed as the measurement made in the treated group (T) divided by the measurement made in the vehicle treated control group (C). The tumor model used in this assay is Adenocarcinoma 755 (subcutaneous) in B6D2F1 (BDF1) mice

[1] abbreviates: dose: 6.0 mg/kg/injection, schedule: Q01DX011 (ip), vehicle: methylcellulose (MC).
The mark [2] stands for this setting: dose: 25.0 mg/kg/injection, schedule: Q01DX011 (ip), vehicle: carboxymethylcellulose (CMC).

`C1CN1P1(N2CC2)=NP(N2CC2)(N2CC2)=NP(N2CC2)(N2CC2)=N1`: the T/C is 60 % of control (dose: 3.0 mg/kg/injection, schedule: Q01DX011 (ip), vehicle: carboxymethylcellulose (CMC)); 43 % of control (dose: 6.0 mg/kg/injection, schedule: Q01DX011 (ip), vehicle: carboxymethylcellulose (CMC)); 17 % of control and 21 % of control under setting [1]; 9 % of control (dose: 12.0 mg/kg/injection, schedule: Q01DX011 (ip), vehicle: carboxymethylcellulose (CMC)).
As for `Nc1nc(Cl)nc2c1ncn2C1OC(CO)C(O)C1O` (centres undefined), the T/C reads like this: (dose: 0.05 mg/kg/injection, schedule: Q01DX011 (ip), vehicle: methylcellulose (MC)) 59 % of control; (dose: 0.1 mg/kg/injection, schedule: Q01DX011 (ip), vehicle: methylcellulose (MC)) 84 % of control; (dose: 0.2 mg/kg/injection, schedule: Q01DX011 (ip), vehicle: methylcellulose (MC)) 48 % of control.
As to `On1cnc(=S)c2[nH]cnc21`, the T/C (dose: 125.0 mg/kg/injection, schedule: Q01DX011 (ip), vehicle: carboxymethylcellulose (CMC)) is 5 % of control.
As for `CN[C@H]1CCc2cc(OC)c(OC)c(OC)c2-c2ccc(OC)c(=O)cc21`, the T/C (dose: 0.75 mg/kg/injection, schedule: Q01DX011 (ip), vehicle: methylcellulose (MC)) was 44 % of control; the T/C (dose: 1.5 mg/kg/injection, schedule: Q01DX011 (ip), vehicle: methylcellulose (MC)) is 60 % of control; the T/C (dose: 3.0 mg/kg/injection, schedule: Q01DX011 (ip), vehicle: methylcellulose (MC)) was 56 % of control; the T/C under setting [1] is 7 % of control.
`CCSc1nc(Cl)cc(Sc2nc(N)nc3nc[nH]c23)n1`: the T/C runs as follows: (dose: 2.5 mg/kg/injection, schedule: Q01DX011 (ip), vehicle: methylcellulose (MC)) 84 % of control; (dose: 5.0 mg/kg/injection, schedule: Q01DX011 (ip), vehicle: methylcellulose (MC)) 65 % of control; (dose: 10.0 mg/kg/injection, schedule: Q01DX011 (ip), vehicle: methylcellulose (MC)) 80 % of control; (dose: 12.5 mg/kg/injection, schedule: Q01DX011 (ip), vehicle: carboxymethylcellulose (CMC)) 82 % of control; (dose: 15.0 mg/kg/injection, schedule: Q01DX011 (ip), vehicle: methylcellulose (MC)) 40 % of control; (dose: 18.0 mg/kg/injection, schedule: Q01DX011 (ip), vehicle: methylcellulose (MC)) 6 % of control. The T/C runs as follows: under setting [2], 69 % of control; (dose: 36.0 mg/kg/injection, schedule: Q01DX011 (ip), vehicle: methylcellulose (MC)) 20 % of control; (dose: 50.0 mg/kg/injection, schedule: Q01DX011 (ip), vehicle: carboxymethylcellulose (CMC)) 24 % of control; (dose: 72.0 mg/kg/injection, schedule: Q01DX011 (ip), vehicle: methylcellulose (MC)) 16 % of control; (dose: 100.0 mg/kg/injection, schedule: Q01DX011 (ip), vehicle: carboxymethylcellulose (CMC)) 1 % of control; (dose: 144.0 mg/kg/injection, schedule: Q01DX011 (ip), vehicle: methylcellulose (MC)) 15 % of control. The T/C (dose: 200.0 mg/kg/injection, schedule: Q01DX011 (ip), vehicle: carboxymethylcellulose (CMC)) was 3 % of control.
For the molecule `CC(C)Cn1cnc2c(SCc3cccc(F)c3)nc(N)nc21`, the T/C by setting is: (dose: 6.25 mg/kg/injection, schedule: Q01DX011 (ip), vehicle: methylcellulose (MC)) 75 % of control; (dose: 12.5 mg/kg/injection, schedule: Q01DX011 (ip), vehicle: methylcellulose (MC)) 55 % of control; (dose: 25.0 mg/kg/injection, schedule: Q01DX011 (ip), vehicle: methylcellulose (MC)) 15 % of control; (dose: 50.0 mg/kg/injection, schedule: Q01DX011 (ip), vehicle: methylcellulose (MC)) 1 % of control.
As for `CCCCn1cnc2c(=O)[nH]cnc21`, the T/C by setting is: (dose: 0.9 mg/kg/injection, schedule: Q01DX011 (ip), vehicle: carboxymethylcellulose (CMC)) 76 % of control; (dose: 1.8 mg/kg/injection, schedule: Q01DX011 (ip), vehicle: carboxymethylcellulose (CMC)) 83 % of control; (dose: 1.8 mg/kg/injection, schedule: Q01DX011 (oral), vehicle: carboxymethylcellulose (CMC)) 76 % of control; (dose: 3.7 mg/kg/injection, schedule: Q01DX011 (ip), vehicle: carboxymethylcellulose (CMC)) 91 % of control; (dose: 3.7 mg/kg/injection, schedule: Q01DX011 (oral), vehicle: carboxymethylcellulose (CMC)) 107 % of control; (dose: 7.5 mg/kg/injection, schedule: Q01DX011 (ip), vehicle: carboxymethylcellulose (CMC)) 63 % of control. Besides, the T/C is 82 % of control (dose: 7.5 mg/kg/injection, schedule: Q01DX011 (oral), vehicle: carboxymethylcellulose (CMC)); 90 % of control (dose: 15.0 mg/kg/injection, schedule: Q01DX011 (oral), vehicle: carboxymethylcellulose (CMC)); 60 % of control (dose: 40.0 mg/kg/injection, schedule: Q01DX001 (ip), vehicle: other); 111 % of control (dose: 66.1 mg/kg/injection, schedule: Q01DX011 (ip), vehicle: other); 45 % of control (dose: 81.0 mg/kg/injection, schedule: Q01DX001 (ip), vehicle: other); 90 % of control (dose: 132.2 mg/kg/injection, schedule: Q01DX011 (ip), vehicle: other). For the same molecule, the T/C was 58 % of control (dose: 132.25 mg/kg/injection, schedule: Q01DX011 (ip), vehicle: carboxymethylcellulose (CMC)); 70 % of control (dose: 132.25 mg/kg/injection, schedule: Q01DX011 (oral), vehicle: carboxymethylcellulose (CMC)); 122 % of control (dose: 162.0 mg/kg/injection, schedule: Q01DX001 (ip), vehicle: other); 105 % of control (dose: 264.5 mg/kg/injection, schedule: Q01DX011 (ip), vehicle: carboxymethylcellulose (CMC)); 76 % of control (dose: 264.5 mg/kg/injection, schedule: Q01DX011 (ip), vehicle: other); 86 % of control (dose: 264.5 mg/kg/injection, schedule: Q01DX011 (oral), vehicle: carboxymethylcellulose (CMC)). Further, the T/C (dose: 324.0 mg/kg/injection, schedule: Q01DX001 (ip), vehicle: other) is 102 % of control and the T/C (dose: 529.0 mg/kg/injection, schedule: Q01DX011 (oral), vehicle: carboxymethylcellulose (CMC)) is 89 % of control.
For the molecule `COc1cc(-c2ccc(Nc3ccccc3C(=O)O)c(OC)c2)ccc1N`, the T/C by setting is: (dose: 10.0 mg/kg/injection, schedule: Q01DX011 (ip), vehicle: saline) 108 % of control; (dose: 20.0 mg/kg/injection, schedule: Q01DX011 (ip), vehicle: saline) 36 % of control; (dose: 40.0 mg/kg/injection, schedule: Q01DX011 (ip), vehicle: saline) 39 % of control; (dose: 80.0 mg/kg/injection, schedule: Q01DX011 (ip), vehicle: saline) 17 % of control.
As to `COc1cc(C(=O)[O][Hg][CH2]C2COC([CH2][Hg][O]C(=O)c3cc(OC)c(OC)c(OC)c3)CO2)cc(OC)c1OC` (centres undefined), the T/C under setting [2] was 61 % of control.
As for `COc1cccc2c1cc([N+](=O)[O-])c1c(C(=O)O)cc3c(c12)OCO3`, the T/C runs as follows: (dose: 50.0 mg/kg/injection, schedule: Q01DX011 (ip), vehicle: other) 59 % of control; (dose: 100.0 mg/kg/injection, schedule: Q01DX011 (ip), vehicle: other) 43 % of control.
`CC(=O)C(CCC(=O)O)(CCC(=O)O)c1ccccc1`: the T/C is, setting by setting: (dose: 30.0 mg/kg/injection, schedule: Q01DX011 (ip), vehicle: other) 87 % of control; (dose: 60.0 mg/kg/injection, schedule: Q01DX011 (ip), vehicle: other) 71 % of control; (dose: 120.0 mg/kg/injection, schedule: Q01DX011 (ip), vehicle: other) 117 % of control; (dose: 240.0 mg/kg/injection, schedule: Q01DX011 (ip), vehicle: other) 97 % of control.
As to `NS(=O)(=O)c1nc2nc[nH]c(=O)c2[nH]1`, the T/C is 113 % of control (dose: 30.0 mg/kg/injection, schedule: Q01DX011 (ip), vehicle: carboxymethylcellulose (CMC)); 163 % of control (dose: 60.0 mg/kg/injection, schedule: Q01DX011 (ip), vehicle: carboxymethylcellulose (CMC)); 104 % of control (dose: 120.0 mg/kg/injection, schedule: Q01DX011 (ip), vehicle: carboxymethylcellulose (CMC)); 113 % of control (dose: 240.0 mg/kg/injection, schedule: Q01DX011 (ip), vehicle: carboxymethylcellulose (CMC)).

What is called T/C is the result in the treated group divided by that in the control group, in per cent.
